The NIST ThermoML archive (doi:10.1021/je040008e)

Columns and labels:
[1] = 101.33 kPa, Liquid; for speed of sound: Linear variable-path acoustic interferometer
[2] = xn = mol fraction of the nth substance listed; conditions: 308.15 K, 101.33 kPa, Liquid; for speed of sound: Linear variable-path acoustic interferometer

CC(=O)c1ccc(Cl)cc1 [4'-chloroacetophenone]
[1]
Conditions | mass density [kg/m3] | speed of sound [m/s]
298.15 K | 1188.9 | –
308.15 K | – | 1390

CC(=O)c1ccc(Cl)cc1 [4'-chloroacetophenone] + CNC(C)=O
[2]
Conditions | excess molar volume [m3/mol] | speed of sound [m/s]
x1 = 0.0644 | -2.11e-07 | 1363
x1 = 0.1311 | -3.3e-07 | 1366
x1 = 0.2036 | -4.53e-07 | 1369.3
x1 = 0.2825 | -5.363e-07 | 1372.4
x1 = 0.3696 | -5.889e-07 | 1375.8
x1 = 0.4664 | -5.934e-07 | 1379.5
x1 = 0.5774 | -5.393e-07 | 1382.6
x1 = 0.7003 | -4.298e-07 | 1385.1
x1 = 0.8405 | -2.52e-07 | 1387.6
x1 = 1 | 0 | 1390

CC(=O)c1ccc(C)cc1 [4'-methylacetophenone]
[1], 308.15 K
Conditions | mass density [kg/m3] | speed of sound [m/s]
– | 996.3 | 1437.9

CC(=O)c1ccc(C)cc1 [4'-methylacetophenone] + CNC(C)=O
[2]
Conditions | excess molar volume [m3/mol] | speed of sound [m/s]
x1 = 0.0617 | -1.519e-07 | 1368.9
x1 = 0.1321 | -2.517e-07 | 1377.7
x1 = 0.2004 | -3.355e-07 | 1385.8
x1 = 0.2836 | -3.41e-07 | 1394.4
x1 = 0.3629 | -3.52e-07 | 1402.4
x1 = 0.4632 | -3.458e-07 | 1411.5
x1 = 0.5582 | -3.114e-07 | 1418.4
x1 = 0.689 | -2.508e-07 | 1426.9
x1 = 0.8305 | -1.92e-07 | 1434
x1 = 1 | 0 | 1437.9

CNC(C)=O [N-methylacetamide]
[1], 308.15 K
Conditions | mass density [kg/m3] | speed of sound [m/s]
– | 949.7 | 1360

CNC(C)=O [N-methylacetamide] + CC(=O)c1ccc(C)cc1
[2], x2 = 0
Conditions | excess molar volume [m3/mol] | speed of sound [m/s]
– | 0 | 1360

CNC(C)=O [N-methylacetamide] + CC(=O)c1ccc(Cl)cc1
[2], x2 = 0
Conditions | excess molar volume [m3/mol] | speed of sound [m/s]
– | 0 | 1360

CNC(C)=O [N-methylacetamide] + CC(=O)c1ccccc1
[2]
Conditions | excess molar volume [m3/mol] | speed of sound [m/s]
x2 = 0 | 0 | 1360
x2 = 0.0686 | -1.018e-07 | 1368.7
x2 = 0.138 | -1.732e-07 | 1376.6
x2 = 0.2189 | -2.437e-07 | 1386.8
x2 = 0.3143 | -2.579e-07 | 1398
x2 = 0.3938 | -2.476e-07 | 1406.1
x2 = 0.4912 | -2.365e-07 | 1415.3
x2 = 0.6042 | -1.695e-07 | 1424.2
x2 = 0.7223 | -1.212e-07 | 1431.4
x2 = 0.8517 | -5.09e-08 | 1438

CNC(C)=O [N-methylacetamide] + CCC(=O)c1ccccc1
[2], x2 = 0
Conditions | excess molar volume [m3/mol] | speed of sound [m/s]
– | 0 | 1360

CC(=O)c1ccccc1 [acetophenone]
[1]
Conditions | mass density [kg/m3] | speed of sound [m/s]
298.15 K | 1023.1 | –
308.15 K | – | 1445

CC(=O)c1ccccc1 [acetophenone] + CNC(C)=O
[2], x1 = 1
Conditions | excess molar volume [m3/mol] | speed of sound [m/s]
– | 0 | 1445

CCC(=O)c1ccccc1 [ethyl phenyl ketone]
[1]
Conditions | mass density [kg/m3] | speed of sound [m/s]
298.15 K | 1009.2 | –
308.15 K | – | 1432.1

CCC(=O)c1ccccc1 [ethyl phenyl ketone] + CNC(C)=O
[2]
Conditions | excess molar volume [m3/mol] | speed of sound [m/s]
x1 = 0.06 | -2.003e-07 | 1368.3
x1 = 0.1269 | -3.185e-07 | 1374.7
x1 = 0.1862 | -3.356e-07 | 1380.6
x1 = 0.2778 | -2.912e-07 | 1388.9
x1 = 0.3654 | -2.106e-07 | 1397.8
x1 = 0.4649 | -1.397e-07 | 1406.6
x1 = 0.5709 | -8.14e-08 | 1413.5
x1 = 0.6929 | -1.92e-08 | 1419.6
x1 = 0.8315 | 3.82e-08 | 1426.6
x1 = 1 | 0 | 1432.1
